# Measured values: patent publication US20070281992A1, “COMBINATION OF GYRASE B INHIBITORS AND PROTEIN SYNTHESIS INHIBITORS AND USES THEREOF” (priority 2006, published 2007)
# Like-named read-outs stand apart in the source and are kept apart here.
# Experiments:
# Format in all cases: cell-based
# [1] = test system: Methicillin-Susceptible Staphylococcus aureus Isolates; experiment: MIC assay (NCCLS broth dilution), MSSA clinical isolates; settings: for MIC: read-out: Minimal Inhibitory Concentration
# Procedure: (§1) Antibiotics: novobiocin, tetracycline, minocycline, oxacillin, and vancomycin were all purchased from Sigma-Aldrich. Linezolid was obtained from Pfizer, Inc. Novobiocin/tetracycline and novobiocin/minocycline were tested in a 2.5:1 ratio to mimic the serum levels. (Vavra, J. J., 1967, Development of resistance to novobiocin, tetracycline, and novobiocin-tetracycline combinations in Staphylococcus aureus populations, J. Bacteriol 93(3):801). Compounds were tested across a concentration range consisting of 11 two-fold serial dilutions of test agent.
# (§2) Stock solutions were prepared in sterile deionized water; novobiocin stock concentration was 1600 μg/mL and all other drugs stock solutions were prepared at 640 μg/mL. The stock solutions were allowed to sit at room temperature for one hour to auto-sterilize prior to use in the test. All compounds were in solution in water. The control agent was vancomycin hydrochloride, Sigma Chemical Lot # 015K0825.
# (§3) The test organisms for the assay were 52 MSSA, 52 MRSA, 8 VISA, 7 VISE, and 3 LRSA isolates. Quality control strains included Staphylococcus aureus 0100 (ATCC 29213) and Enterococcus faecalis (ATCC 29212).
# (§4) The MIC assay was performed according to published NCCLS guidelines. (National Committee for Clinical Laboratory Standards, Methods for Dilution Antimicrobial Susceptibility Tests for Bacteria that Grow Aerobically; Approved Standard-Sixth Edition, NCCLS Document M7-A6 [ISBN 1-56238-486-4], NCCLS, 940 West Valley Road, Suite 1400, Wayne, Pa. 19087-1898 USA, 2003). The test medium was Mueller Hinton II Broth for all organisms.
# [2] = test system: Unconfirmed Vancomycin-intermediate Staphylococcus epidermidis Isolates; experiment: MIC assay (NCCLS broth dilution), unconfirmed VISE isolates; settings: for MIC: read-out: Minimal Inhibitory Concentration
# Procedure: as §1, §2, §3, §4
# [3] = test system: Enterococcus faecalis (ATCC 29212); experiment: MIC assay, quality control strain E. faecalis ATCC 29212; settings: ATCC29212, E. faecalis ATCC 29212, repeat runs 22FEB06-09MAR06, combinations at 2.5:1, read-out: Minimal Inhibitory Concentration, quality control
# Procedure: as §1, §2, §3, §4
# [4] = Staphylococcus aureus, 52 MSSA isolates, combinations at 2.5:1, given as NB/partner
structure (smiles),measurement,setting,value
"CN(C)c1ccc(O)c2c1C[C@H]1C[C@H]3[C@H](N(C)C)C(O)=C(C(N)=O)C(=O)[C@@]3(O)C(O)=C1C2=O [MI, minocycline]",MIC Range,"[1]; 52 MSSA isolates, Mueller Hinton II Broth, combinations at 2.5:1, given as NB/partner",.06 to .12 µg/mL
same,MIC,"[1]; Staphylococcus aureus, MSSA isolate 133, 03MAR06",0.06 µg/mL
same,MIC,"[1]; Staphylococcus aureus, MSSA isolate 134, 03MAR06",0.06 µg/mL
same,MIC,"[1]; Staphylococcus aureus, MSSA isolate 135, 03MAR06",0.06 µg/mL
same,MIC,"[1]; Staphylococcus aureus, MSSA isolate 753, 22FEB06",0.12 µg/mL
same,MIC,"[1]; Staphylococcus aureus, MSSA isolate 754, 22FEB06",0.12 µg/mL
same,MIC,"[1]; Staphylococcus aureus, MSSA isolate 754, 24FEB06",0.12 µg/mL
same,MIC,"[1]; Staphylococcus aureus, MSSA isolate 755, 22FEB06",0.12 µg/mL
same,MIC,"[1]; Staphylococcus aureus, MSSA isolate 756, 03MAR06",0.06 µg/mL
same,MIC,"[1]; Staphylococcus aureus, MSSA isolate 779, 22FEB06",0.12 µg/mL
same,MIC,"[1]; Staphylococcus aureus, MSSA isolate 780, 03MAR06",0.12 µg/mL
same,MIC,"[1]; Staphylococcus aureus, MSSA isolate 781, 03MAR06",0.06 µg/mL
same,MIC,"[1]; Staphylococcus aureus, MSSA isolate 782, 22FEB06",0.12 µg/mL
same,MIC,"[1]; Staphylococcus aureus, MSSA isolate 783, 22FEB06",0.12 µg/mL
same,MIC,"[1]; Staphylococcus aureus, MSSA isolate 784, 22FEB06",0.12 µg/mL
same,MIC,"[1]; Staphylococcus aureus, MSSA isolate 785, 22FEB06",0.12 µg/mL
same,MIC,"[1]; Staphylococcus aureus, MSSA isolate 786, 22FEB06",0.12 µg/mL
same,MIC,"[1]; Staphylococcus aureus, MSSA isolate 787, 22FEB06",0.12 µg/mL
same,MIC,"[1]; Staphylococcus aureus, MSSA isolate 788, 22FEB06",0.12 µg/mL
same,MIC,"[1]; Staphylococcus aureus, MSSA isolate 789, 24FEB06",0.12 µg/mL
same,MIC,"[1]; Staphylococcus aureus, MSSA isolate 790, 24FEB06",0.12 µg/mL
same,MIC,"[1]; Staphylococcus aureus, MSSA isolate 791, 24FEB06",0.12 µg/mL
same,MIC,"[1]; Staphylococcus aureus, MSSA isolate 792, 03MAR06",0.06 µg/mL
same,MIC,"[1]; Staphylococcus aureus, MSSA isolate 793, 24FEB06",0.12 µg/mL
same,MIC,"[1]; Staphylococcus aureus, MSSA isolate 794, 24FEB06",0.12 µg/mL
same,MIC,"[1]; Staphylococcus aureus, MSSA isolate 994, 22FEB06",0.12 µg/mL
same,MIC,"[1]; Staphylococcus aureus, MSSA isolate 995, 03MAR06",0.12 µg/mL
same,MIC,"[1]; Staphylococcus aureus, MSSA isolate 996, 22FEB06",0.06 µg/mL
same,MIC,"[1]; Staphylococcus aureus, MSSA isolate 997, 22FEB06",0.12 µg/mL
same,MIC,"[1]; Staphylococcus aureus, MSSA isolate 998, 03MAR06",0.06 µg/mL
same,MIC,"[1]; Staphylococcus aureus, MSSA isolate 999, 22FEB06",0.12 µg/mL
same,MIC,"[1]; Staphylococcus aureus, MSSA isolate 1000, 24FEB06",0.12 µg/mL
same,MIC,"[1]; Staphylococcus aureus, MSSA isolate 1001, 24FEB06",0.12 µg/mL
same,MIC,"[1]; Staphylococcus aureus, MSSA isolate 1002, 24FEB06",0.12 µg/mL
same,MIC,"[1]; Staphylococcus aureus, MSSA isolate 1003, 03MAR06",0.06 µg/mL
same,MIC,"[1]; Staphylococcus aureus, MSSA isolate 1005, 24FEB06",0.06 µg/mL
same,MIC,"[1]; Staphylococcus aureus, MSSA isolate 1006, 24FEB06",0.12 µg/mL
same,MIC,"[1]; Staphylococcus aureus, MSSA isolate 1007, 24FEB06",0.12 µg/mL
same,MIC,"[1]; Staphylococcus aureus, MSSA isolate 1008, 24FEB06",0.06 µg/mL
same,MIC,"[1]; Staphylococcus aureus, MSSA isolate 1009, 24FEB06",0.12 µg/mL
same,MIC,"[1]; Staphylococcus aureus, MSSA isolate 1131, 24FEB06",0.06 µg/mL
same,MIC,"[1]; Staphylococcus aureus, MSSA isolate 1132, 03MAR06",0.06 µg/mL
same,MIC,"[1]; Staphylococcus aureus, MSSA isolate 1133, 24FEB06",0.12 µg/mL
same,MIC,"[1]; Staphylococcus aureus, MSSA isolate 1134, 24FEB06",0.12 µg/mL
same,MIC,"[1]; Staphylococcus aureus, MSSA isolate 1654, 03MAR06",0.12 µg/mL
same,MIC,"[1]; Staphylococcus aureus, MSSA isolate 1656, 03MAR06",0.06 µg/mL
same,MIC,"[1]; Staphylococcus aureus, MSSA isolate 1662, 03MAR06",0.06 µg/mL
same,MIC,"[1]; Staphylococcus aureus, MSSA isolate 1663, 03MAR06",0.12 µg/mL
same,MIC,"[1]; Staphylococcus aureus, MSSA isolate 1666, 03MAR06",0.06 µg/mL
same,MIC,"[1]; Staphylococcus aureus, MSSA isolate 1667, 03MAR06",0.12 µg/mL
same,MIC,"[1]; Staphylococcus aureus, MSSA isolate 1668, 03MAR06",0.06 µg/mL
same,MIC,"[1]; Staphylococcus aureus, MSSA isolate 1671, 03MAR06",0.06 µg/mL
same,MIC,"[1]; Staphylococcus aureus, MSSA isolate 1728, 03MAR06",0.06 µg/mL
same,MIC,"[1]; Staphylococcus aureus, MSSA isolate 1728, retest 09MAR06",0.06 µg/mL
same,MIC50,[1]; [4],0.12 µg/mL
same,MIC90,[1]; [4],0.12 µg/mL
same,MIC Range,"[2]; 3 unconfirmed VISE isolates, combinations at 2.5:1",0.12 to 0.25 µg/mL
same,MIC,"[2]; Staphylococcus epidermidis, Unconfirmed VISE isolate 2024, 09MAR06",0.25 µg/mL
same,MIC,"[2]; Staphylococcus epidermidis, Unconfirmed VISE isolate 2025, 09MAR06",0.12 µg/mL
same,MIC,"[2]; Staphylococcus epidermidis, Unconfirmed VISE isolate 2026, 03MAR06",0.25 µg/mL
same,MIC50,"[2]; Staphylococcus epidermidis, 3 unconfirmed VISE isolates, combinations at 2.5:1",0.25 µg/mL
same,MIC,[3],2 µg/mL
